Assay results from ChEMBL document CHEMBL1136778, “Mitomycin antitumor compounds. 2. Interaction of transition metal ions with mitomycin C. Solution structure and biological activity of a Pd(2+)-MMC complex” (J Med Chem, 2003).

Experiments:
K562 [1] = assay: In vitro inhibitory activity against K562 leukemia cells; assay type: functional, cell-based; details: Homo sapiens
K562 [2] = assay: In vitro inhibitory activity against K562 leukemia cells in the presence of pd2; assay type: functional, cell-based; details: Homo sapiens

IC50 (K562 [2]) | SMILES | IC50 (K562 [1])
– | CC1=C(N)C(=O)c2c(COC(N)=O)c3n(c2C1=O)C[C@H](N)[C@@H]3O | 33 nM
15.8 nM | CO[C@@]12[C@H](COC(N)=O)C3=C(C(=O)C(C)=C(N)C3=O)N1C[C@@H]1N[C@@H]12 [MITOMYCIN] | 1 nM
